Here are results for 25 compounds from patent publication US8580809B2, “Filamin A-binding anti-inflammatory analgesic” (Pain Therapeutics, Inc., priority 2009, dated 2013).

The experiment addresses T1, mu opiate receptor (MOR) (Rattus norvegicus, UniProt P33535).
T1 construct: from tissue; host or cells: rat striatal membrane preparation
Briefly: MOR agonist activity using [35S]GTPγS binding assay in striatal membranes. In kind it is biochemical. Conditions: for MOR agonist activity, [35S]GTPγS binding to Gαo, FLNA-binding compound as agonist 0.1 μM: 0.1 μM compound; for MOR agonist activity, [35S]GTPγS binding to Gαo, FLNA-binding compound as agonist 0.1 μM / MOR agonist activity, [35S]GTPγS binding to Gαo, FLNA-binding compound as agonist 1 μM: striatal membranes; for MOR agonist activity, [35S]GTPγS binding to Gαo, 1 μM + BFNA: 1 μM compound + 1 μM β-funaltrexamine; for MOR agonist activity, [35S]GTPγS binding to Gαo, FLNA-binding compound as agonist 1 μM: 1 μM compound. The procedure:
To assess the mu opiate receptor (MOR) agonist activity of positive compounds from the FLNA screening, compounds were tested in a [^35S]GTPγS binding assay using striatal membranes.
Striatal tissue was homogenized in 10 volumes of ice cold 25 mM HEPES buffer, pH 7.4, which contained 1 mM EGTA, 100 mM sucrose, 50 μg/ml leupeptin, 0.04 mM PMSF, 2 μg/ml soybean trypsin inhibitor and 0.2% 2-mercaptoethanol. The homogenates were centrifuged at 800×g for 5 minutes and the supernatants were centrifuged at 49,000×g for 20 minutes.
The resultant striatal membrane preparation (200 μg) was admixed and maintained (incubated) at 30° C. for 5 minutes in reaction buffer as above that additionally contained 1 mM MgCl2 and 0.5 nM [^35S]GTPγS (0.1 μCi/assay, PerkinElmer Life and Analytical Sciences) in a total volume of 250 μl and continued for 5 minutes in the absence or presence of 0.1-10 μM of an assayed compound of interest. The reaction was terminated by dilution with 750 μl of ice-cold reaction buffer that contained 20 mM MgCl2 and 1 mM EGTA and immediate centrifugation at 16,000×g for 5 minutes.
The resulting pellet was solubilized by sonicating for 10 seconds in 0.5 ml of immunoprecipitation buffer containing 0.5% digitonin, 0.2% sodium cholate and 0.5% NP-40. Normal rabbit serum (1 μl) was added to 1 ml of lysate and incubated at 25° C. for 30 minutes. Nonspecific immune complexes were removed by incubation with 25 μl of protein A/G-conjugated agarose beads at 25° C. for 30 minutes followed by centrifugation at 5,000×g at 4° C. for 5 minutes. The supernatant was divided and separately incubated at 25° C. for 30 minutes with antibodies raised against Gαo proteins (1:1,000 dilutions).
The immunocomplexes so formed were collected by incubation at 25° C. for 30 minutes with 40 μl of agarose-conjugated protein A/G beads and centrifugation at 5,000×g at 4° C. for 5 minutes. The pellet was washed and suspended in buffer containing 50 mM Tris-HCl, pH 8.0, and 1% NP-40. The radioactivity in the suspension was determined by liquid scintillation spectrometry. […] DAMGO (H-Tyr-D-Ala-Gly-N-MePhe-Gly-OH; 1 or 10 μM) was used as a positive control.
In general terms: Binding of GTPγS marks nucleotide exchange on a G protein.

T1 sequence (P33535 whole entry): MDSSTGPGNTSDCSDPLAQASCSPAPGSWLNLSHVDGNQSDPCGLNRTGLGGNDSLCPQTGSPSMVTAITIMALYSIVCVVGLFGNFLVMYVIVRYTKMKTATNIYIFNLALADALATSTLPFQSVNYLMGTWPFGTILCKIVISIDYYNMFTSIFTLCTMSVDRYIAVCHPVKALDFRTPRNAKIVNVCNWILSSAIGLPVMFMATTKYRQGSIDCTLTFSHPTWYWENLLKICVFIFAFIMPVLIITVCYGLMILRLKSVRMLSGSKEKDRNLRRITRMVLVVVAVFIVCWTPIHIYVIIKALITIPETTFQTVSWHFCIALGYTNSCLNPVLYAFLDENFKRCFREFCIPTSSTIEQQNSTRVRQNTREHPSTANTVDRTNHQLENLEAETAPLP

On to `COc1ccc(NC(=O)N2CCC3(CC2)OCCN3S(=O)(=O)c2ccc(OC)cc2)cc1` [Compound C0041], for which the “MOR agonist activity, [35S]GTPγS binding to Gαo, FLNA-binding compound as agonist 0.1 μM” value (from here on “MOR agonist activity … as agonist 0.1 μM”) is given as 186.1%; the “MOR agonist activity, [35S]GTPγS binding to Gαo, 1 μM + BFNA” value (shortened to “MOR agonist activity … 1 μM + BFNA”) worked out at 95.5%; the “MOR agonist activity, [35S]GTPγS binding to Gαo, FLNA-binding compound as agonist 1 μM” value (from here on “MOR agonist activity … as agonist 1 μM”) amounted to 244.4%.

With `O=C(OCc1ccccc1)c1ccc(S(=O)(=O)N2CCC3(CC2)OCCN3S(=O)(=O)c2ccc(C(=O)OCc3ccccc3)cc2)cc1` [Compound C0042], the “MOR agonist activity … as agonist 0.1 μM” value amounted to 167.1%; the “MOR agonist activity … 1 μM + BFNA” value was 110.6%; the “MOR agonist activity … as agonist 1 μM” value was determined as 260.9%.

As to `COc1ccc(S(=O)(=O)N2CCC3(CC2)OCCN3S(=O)(=O)c2ccc(C(C)=O)cc2)cc1` [Compound C0048], the “MOR agonist activity … as agonist 0.1 μM” value came to 209.1%; the “MOR agonist activity … 1 μM + BFNA” value was found to be 89.9%; the “MOR agonist activity … as agonist 1 μM” value was 245.3%.

Take `COc1ccc(S(=O)(=O)N2CCC3(CC2)OCCN3S(=O)(=O)c2ccc(OC)c(OC)c2)cc1OC` [Compound C0049]: the “MOR agonist activity … as agonist 0.1 μM” value came out at 106.6%; the “MOR agonist activity … 1 μM + BFNA” value was determined as 81.0%; the “MOR agonist activity … as agonist 1 μM” value was 210.0%.

In the case of `CC(O)c1ccc(S(=O)(=O)N2CCC3(CC2)OCCN3S(=O)(=O)c2ccc(C(C)O)cc2)cc1` (stereo not drawn) [Compound C0051], the “MOR agonist activity … as agonist 0.1 μM” value is listed as 94.4%; the “MOR agonist activity … 1 μM + BFNA” value is given as 55.9%; the “MOR agonist activity … as agonist 1 μM” value worked out at 170.4%.

Consider `CC(=O)c1ccc(C(=O)N2CCOC23CCN(S(=O)(=O)c2ccc(C(C)=O)cc2)CC3)cc1` [Compound C0053], for which the “MOR agonist activity … as agonist 0.1 μM” value was 104.0%; the “MOR agonist activity … 1 μM + BFNA” value is given as 93.1%; the “MOR agonist activity … as agonist 1 μM” value worked out at 157.2%.

Take `CC(=O)c1ccc(C(=O)N2CCC3(CC2)OCCN3C(=O)c2ccc(C(C)=O)cc2)cc1` [Compound C0054]: the “MOR agonist activity … as agonist 0.1 μM” value came out at 68.2%; the “MOR agonist activity … 1 μM + BFNA” value turned out to be 43.5%; the “MOR agonist activity … as agonist 1 μM” value came to 127.0%.

Regarding `COc1cc(S(=O)(=O)N2CCC3(CC2)OCCN3S(=O)(=O)c2cc(OC)c(OC)c(OC)c2)cc(OC)c1OC` [Compound C0062], the “MOR agonist activity … as agonist 0.1 μM” value is recorded as 127.8%; the “MOR agonist activity … 1 μM + BFNA” value turned out to be 59.8%; the “MOR agonist activity … as agonist 1 μM” value amounted to 310.5%.

On to `CC(=O)c1ccc(S(=O)(=O)N2CCC3(CC2)NC(=O)CN3S(=O)(=O)c2ccc(C(C)=O)cc2)cc1` [Compound C0064], for which the “MOR agonist activity … as agonist 0.1 μM” value was 213.8%; the “MOR agonist activity … 1 μM + BFNA” value worked out at 38.1%; the “MOR agonist activity … as agonist 1 μM” value turned out to be 349.6%.

As for `CC(=O)c1ccc(S(=O)(=O)N2CCC3(CC2)OC(CN(C)C)CN3S(=O)(=O)c2ccc(C(C)=O)cc2)cc1` (stereo not drawn) [Compound C0065], the “MOR agonist activity … as agonist 0.1 μM” value amounted to 198.3%; the “MOR agonist activity … 1 μM + BFNA” value stood at 47.7%; the “MOR agonist activity … as agonist 1 μM” value is on record as 279.5%.

As for `O=S(=O)(c1ccc(Cl)cc1)N1CCC2(CC1)OCCN2S(=O)(=O)c1ccc(Cl)cc1` [Compound C0067], the “MOR agonist activity … as agonist 0.1 μM” value was found to be 142.7%; the “MOR agonist activity … 1 μM + BFNA” value worked out at 33.5%; the “MOR agonist activity … as agonist 1 μM” value is 179.0%.

With `O=S(=O)(c1ccc(Br)cc1C(F)(F)F)N1CCC2(CC1)OCCN2S(=O)(=O)c1ccc(Br)cc1C(F)(F)F` [Compound C0068], the “MOR agonist activity … as agonist 0.1 μM” value was determined as 107.2%; the “MOR agonist activity … 1 μM + BFNA” value worked out at 165.9%; the “MOR agonist activity … as agonist 1 μM” value is 263.1%.

With `O=S(=O)(c1ccc(Br)cc1Br)N1CCC2(CC1)OCCN2S(=O)(=O)c1ccc(Br)cc1Br` [Compound C0070], the “MOR agonist activity … as agonist 0.1 μM” value is listed as 165.6%; the “MOR agonist activity … 1 μM + BFNA” value worked out at 114.2%; the “MOR agonist activity … as agonist 1 μM” value is given as 210.8%.

On to `O=S(=O)(c1ccc(C(F)(F)F)cc1Br)N1CCC2(CC1)OCCN2S(=O)(=O)c1ccc(C(F)(F)F)cc1Br` [Compound C0071], for which the “MOR agonist activity … as agonist 0.1 μM” value turned out to be 276.3%; the “MOR agonist activity … 1 μM + BFNA” value turned out to be 177.1%; the “MOR agonist activity … as agonist 1 μM” value worked out at 355.3%.

As for `O=S(=O)(c1ccc(F)c(F)c1)N1CCC2(CC1)OCCN2S(=O)(=O)c1ccc(F)c(F)c1` [Compound C0072], the “MOR agonist activity … as agonist 0.1 μM” value is 172.7%; the “MOR agonist activity … 1 μM + BFNA” value worked out at 67.1%; the “MOR agonist activity … as agonist 1 μM” value is on record as 259.1%.

Take `O=S(=O)(c1ccc(Br)c(C(F)(F)F)c1)N1CCC2(CC1)OCCN2S(=O)(=O)c1ccc(Br)c(C(F)(F)F)c1` [Compound C0077]: the “MOR agonist activity … as agonist 0.1 μM” value is reported as 192.7%; the “MOR agonist activity … 1 μM + BFNA” value is given as 136.7%; the “MOR agonist activity … as agonist 1 μM” value is listed as 265.4%.

Turning to `O=S(=O)(c1ccc(Br)cc1F)N1CCC2(CC1)OCCN2S(=O)(=O)c1ccc(Br)cc1F` [Compound C0078], the “MOR agonist activity … as agonist 0.1 μM” value stood at 138.1%; the “MOR agonist activity … 1 μM + BFNA” value was determined as 170.7%; the “MOR agonist activity … as agonist 1 μM” value came out at 236.6%.

Regarding `CC(=O)c1ccc(S(=O)(=O)N2CCC3(CC2)OCC(CCCCN(C)C)N3S(=O)(=O)c2ccc(C(C)=O)cc2)cc1` (stereo not drawn) [Compound C0080M], the “MOR agonist activity … as agonist 0.1 μM” value is 187.9%; the “MOR agonist activity … 1 μM + BFNA” value was 167.1%; the “MOR agonist activity … as agonist 1 μM” value amounted to 205.4%.

With `CC(=O)c1ccc(S(=O)(=O)N2CCC3(CC2)NC(=O)C(Cc2cnc[nH]2)N3S(=O)(=O)c2ccc(C(C)=O)cc2)cc1` (stereo not drawn) [Compound C0084M], the “MOR agonist activity … as agonist 0.1 μM” value was determined as 163.1%; the “MOR agonist activity … 1 μM + BFNA” value turned out to be 133.2%; the “MOR agonist activity … as agonist 1 μM” value is 255.5%.

With `CC(=O)c1ccc(S(=O)(=O)N2CCC3(CC2)NC(=O)CN3Cc2ccccc2)cc1` [Compound C0085M], the “MOR agonist activity … as agonist 0.1 μM” value amounted to 211.6%; the “MOR agonist activity … 1 μM + BFNA” value is on record as 43.7%; the “MOR agonist activity … as agonist 1 μM” value amounted to 246.2%.

On to `O=C1CN(Cc2ccccc2)C2(CCN(S(=O)(=O)c3cc(Cl)cc(Cl)c3O)CC2)N1` [Compound C0138M], for which the “MOR agonist activity … as agonist 0.1 μM” value is reported as 126.9%; the “MOR agonist activity … 1 μM + BFNA” value turned out to be 51.5%; the “MOR agonist activity … as agonist 1 μM” value is on record as 183.9%.

As to `O=S(=O)(c1ccc2ccccc2c1)N1CCC2(CC1)OCCN2S(=O)(=O)c1ccc2ccccc2c1` [Compound C0140M], the “MOR agonist activity … as agonist 0.1 μM” value is recorded as 126.1%; the “MOR agonist activity … 1 μM + BFNA” value is on record as 83.0%; the “MOR agonist activity … as agonist 1 μM” value stood at 215.4%.

For `O=S(=O)(c1cccs1)N1CCC2(CC1)OCCN2S(=O)(=O)c1cccs1` [Compound C0141M], the “MOR agonist activity … as agonist 0.1 μM” value amounted to 161.5%; the “MOR agonist activity … 1 μM + BFNA” value is on record as 47.9%; the “MOR agonist activity … as agonist 1 μM” value came out at 213.9%.

Consider `O=S(=O)(c1cccc2cccnc12)N1CCC2(CC1)OCCN2S(=O)(=O)c1cccc2cccnc12` [Compound C0143M], for which the “MOR agonist activity … as agonist 0.1 μM” value is 81.0%; the “MOR agonist activity … 1 μM + BFNA” value amounted to 86.5%; the “MOR agonist activity … as agonist 1 μM” value is on record as 193.3%.

On to `COc1ccc(S(=O)(=O)N2CCC3(OCCN3S(=O)(=O)c3ccc(OC)cc3)C3CCCCC32)cc1` (stereo not drawn) [Compound C0144M], for which the “MOR agonist activity … as agonist 0.1 μM” value came to 186.3%; the “MOR agonist activity … 1 μM + BFNA” value amounted to 125.9%; the “MOR agonist activity … as agonist 1 μM” value amounted to 295.9%.
